# Assay results: patent US20180291123A1, “DI-FUNCTIONALIZED HYALURONIC ACID DERIVATIVES AND HYDROGELS THEREOF” (THE BROAD OF REGENTS OF THE UNIVERSITY OF TEXAS SYSTEM, priority 2015, published 2018)
# No end group written: not given here.
# Columns and labels:
# [1] = system: mouse embryonic stem cells; test: Differentiation of mouse embryonic stem cells on IKVAV concentration gradient PEG hydrogels; format: cell-based; details: 3 days of differentiation
# hiPSC derived NSC = hiPSC derived NSC in 3D matrix with coupled IKVAV; format: cell-based, human; details: peptide coupled within a 3D matrix, preliminary data
substance,measurement,setting,value
IKVAV (also: tethered in PEG hydrogel),toxicity,[1]; high concentration of tethered peptide,toxicity evident
same,neurite extension,[1]; low concentration of tethered peptide,lack of neurite extension
same,"effect on cellular survival, neurite extension and differentiation","[1]; tethered peptide concentration gradient in PEG hydrogels, β3 tubulin staining",concentration dependent effect
same,survival and neurite extension,hiPSC derived NSC,can support survival and neurite extension
